Measurements reported in US6573045B1, “Methods and kits for discovery of RNA-binding compounds” (Ribotargets, Ltd., priority 1998, dated 2003).
Like-named read-outs stand apart in the source and are kept apart here.

Columns and labels:
TAR RNA Duplex-2 = assay: Competition binding assay, FAM-labelled TAR RNA Duplex-2 / TAMRA-labelled ADP-1; parameters: species or system HIV; conditions: saturating concentrations of ADP-1 competitor
Text: In order to obtain efficient fluorescent resonance energy transfer and/or quenching it is important that the fluorescent groups are placed on the reporter and the target RNA to permit close contact between the donor and acceptors after complex formation. In this experiment the FAM group on the TAR RNA target (Duplex 2) has been displaced by the addition of a base pair. This alteration to the target RNA structure has the effect of increasing the distance of the FAM group from the binding site on the TAR RNA duplex by 2 Å more than the equivalent group on the TAR RNA Duplex 1 target. In addition, insertion of the base pair rotates the FAM group by 18° compared to the equivalent group in the Duplex-1 TAR RNA target.
Because Duplex-2 has a sub-optimal spacing of the FAM-label on TAR RNA it gives rise to a poor signal in the assay compared to Duplex-1, with a less than 50% rise in fluorescence in the presence of saturating concentrations of ADP-1 competitor.

TAR RNA = assay: Competition binding assay, FAM-labelled TAR RNA Duplex-1 / TAMRA-labelled ADP-1; parameters: species or system HIV; conditions: for Ki: 2 nM FAM-labelled TAR RNA, 18 nM unlabelled TAR RNA; for binding to TAR RNA (competitor efficiency): FIG. 8 and FIG. 9
Procedure: This experiment was performed with a starting condition in which there is an equimolar ratio of TAMRA-labelled ADP-1 peptide and TAR RNA (both labelled and unlabelled). A pre-mix is prepared on ice containing 2 nM FAM-labelled TAR RNA, 18 nM unlabelled TAR RNA and 20 nM TAMRA-labelled ADP-1 peptide diluted in TK buffer to provide the final concentrations (as detailed above) in each 200 μl reaction volume. The ADP-1 peptide was prepared as a 2 fold dilution series in TK buffer at 10 times the assay concentration and diluted 10 fold into the final assay volume. The competition assays were equilibrated for 15 minutes at room temperature and the fluorescence-emission spectra at 535 nm determined in a Wallac Victor™ 1420 following excitation at 485 nm.
Under these conditions, the Ki for the unlabelled ADP-1 competitor was measured as 100 nM.
TAMRA-labelled ADP-1 peptide and increasing concentrations of C5 cyclic peptide (SEQ ID 9). A pre-mix is prepared on ice containing the FAM-labelled TAR RNA, unlabelled TAR RNA and the TAMRA-labelled ADP-1 peptide diluted in TK buffer to provide the final concentrations (as detailed above) in each 200 μl reaction volume. The C5 cyclic peptide was prepared as a 2 fold dilution series in TK buffer at 10 times the assay concentration and diluted 10 fold in to the final assay volume.

FAM-labelled TAR RNA = assay: Quenching of FAM-labelled TAR RNA by unlabelled ADP-1 peptide; format: binding, HIV; conditions: 2 nM FAM-TAR
Procedure: The FAM-TAR was diluted from a 100 nM stock solution in TK buffer (50 mM Tris-HCl pH7.6, 20 mM KCl) to obtain a final assay concentration of 2 nM in 200 μl reaction volume. The unlabelled ADP-1 peptide was prepared in TK buffer as a 2 fold dilution series at 10 times the assay concentration and diluted 10 fold into the final assay volume (200 μl). After complex formation was performed for 20 minutes at room temperature the fluorescence-emission at 535 nm was determined in a Wallac Victor™ 1420 following excitation at 485 nm.
The level of fluorescence obtained in the absence of the unlabelled ADP-1 peptide is normalised to 100% and the levels of fluorescence obtained in the presence of the unlabelled ADP-1 peptide are expressed as a percentage of this value.

[1] = target: FAM-labelled TAR RNA duplex 1; assay: Quenching of FAM-labelled TAR RNA by TAMRA-labelled ADP-1 (complex formation); format: binding, HIV
Procedure: In this experiment, 2 nM FAM-labelled TAR RNA was mixed with increasing concentrations of TAMRA-labelled ADP-1 peptide. The FAM-TAR was diluted from a 100 nM stock solution in TK buffer (50 mM Tris-HCl pH 7.6, 20 mM KCl) to obtain a final assay concentration of 2 nM in 200 μl reaction volume. The TAMRA-labelled ADP-1 peptide was prepared in TK buffer as a 2-fold dilution series at 10 times the assay concentration and diluted 10 fold in to the final assay volume (200 μl). Complex formation was performed for 20 minutes at room temperature and the fluorescence-emission spectra at 535 nm determined in a Wallac Victor™ 1420 following excitation at 485 nm.
The level of fluorescence obtained in the absence of TAMRA-labelled ADP-1 peptide gave a fluorescence intensity of 2100 units. As the ADP-1 concentration is increased there is a progressive loss of fluorescence intensity detected, until at concentrations of ADP-1 greater than 100 nM there is over 80% loss of fluorescence intensity and there is no further quenching detected.

RRE RNA = assay: Dabcyl-peptide binding to Fam-labelled RNA (quenching), RRE; parameters: species or system HIV; conditions: for Kd: RRE, 110 mM KCl
Text: (§1) A representative subset comprising 40 peptide sequences from the total of 243 possible sequences was synthesised and is shown in Table 6. The peptides from the library are: No. 3 (SEQ ID NO:11), 4 (SEQ ID NO:12), 5 (SEQ ID NO:13), 6 (SEQ ID NO:14), 7 (SEQ ID NO:15), 8 (SEQ ID NO:16), 9 (SEQ ID NO:17), 10 (SEQ ID NO:18), 11 (SEQ ID NO:19), 12 (SEQ ID NO:20), 13 (SEQ ID NO:21), 14 (SEQ ID NO:22), 15 (SEQ ID NO:23), 16 (SEQ ID NO:24), 17 (SEQ ID NO:25), 18 (SEQ ID NO:26), 19 (SEQ ID NO:27), 20 (SEQ ID NO:28), 21 (SEQ ID NO:29), 22 (SEQ ID NO:30), 23 (SEQ ID NO:31), 24 (SEQ ID NO:32), 25 (SEQ ID NO:33), 26 (SEQ ID NO:34), 27 (SEQ ID NO:35), 28 (SEQ ID NO:36), 29 (SEQ ID NO:37), 30 (SEQ ID NO:38), 31 (SEQ ID NO:39), 32 (SEQ ID NO:40), 33 (SEQ ID NO:41), 34 (SEQ ID NO:42), 35 (SEQ ID NO:43), 36 (SEQ ID NO:44), 37 (SEQ ID NO:45), 38 (SEQ ID NO:46), 39 (SEQ ID NO:47), 40 (SEQ ID NO:48), 41 (SEQ ID NO:49), 42 (SEQ ID NO:50). These peptides were assayed for their ability to bind to range of RNA sequences carrying fluorescein attached to the 5′ end, as shown in FIG. 25.
(§2) FIG. 26. presents binding data for the peptide sequence 5 (KKQKR) (SEQ ID NO: 13) and the 4 RNA sequences. Reactions (100 μl) containing Fam-labelled RNA (10 nM) were mixed with increasing concentrations of Dabcyl-labelled ADP-1 peptide (up to 250 nM) in 50 mM Tris/Cl, pH7.4, 20 mM or 110 mM KCl (as indicated), 5 μg/ml BSA, 0.01% Triton X-100, 1% DMSO. Fluorescence (excitation 490 nm/emission at 535 nm) was determined using a Victor plate reader.
(§3) Dissociation constants were determined by fitting a binding isotherm (1-site-binding) to the data using the equation:
(§4) Y=((Fmax−Fmin)−((Fmax−Fmin)*X/(Kd+X)))+Fmin
(§5) where Fmax is fluorescence in the absence of quencher, Fmin is fluorescence at saturation, and X is peptide concentration.

GTPase-LHL RNA = assay: Dabcyl-peptide binding to Fam-labelled RNA (quenching), GTPase LHL; conditions: for Kd: GTPase-LHL, 110 mM KCl; for binding to the GTPase RNA: FIG. 27
Text: as §1, §2, §3, §4, §5

ss-19mer RNA = assay: Dabcyl-peptide binding to Fam-labelled RNA (quenching), single stranded RNA; conditions: for Kd: ss-19mer, 110 mM KCl
Text: as §1, §2, §3, §4, §5

TAR bulge RNA = assay: Dabcyl-peptide binding to Fam-labelled RNA (quenching), TAR; parameters: species or system HIV; conditions: 110 mM KCl
Text: as §1, §2, §3, §4, §5

[2] = 20 nM TAMRA-labelled ADP-1, 0-100 μM cyclic peptide, average ± SD of three, read-out: Ki

## ADP-1: unlabelled peptide derived from HIV Tat, residues 37 to 72 (SEQ ID NO: 7) (FTTKALGISYGRKKRRQRRRPPQGSGTHQVSLSKQ; Human immunodeficiency virus)
TAR RNA Duplex-2
  rise in fluorescence: less than 50%
TAR RNA; 20 nM TAMRA-labelled ADP-1, read-out: Ki for the unlabelled ADP-1 competitor
  Ki: 100 nM
FAM-labelled TAR RNA
  quenching of the FAM group present on TAR RNA: ≤ 20%

## TAMRA-Phe-Thr-Thr-Lys-Ala-Leu-Gly-Ile-Ser-Tyr-Gly-Arg-Lys-Lys-Arg-Arg-G ln-Arg-Arg-Arg-Pro-Pro-Gln-Gly-Ser-Gln-Thr-His-Gln-Val-Ser-Leu-Ser-Lys-Gln [TAMRA-labelled ADP-1]
[1]; 2 nM FAM-labelled TAR RNA, TK buffer, read-out: binding constant (Kd) of TAMRA-labelled ADP-1 for FAM-labelled TAR RNA duplex 1
  Kd: ~25 nM
[1]; concentrations of ADP-1 greater than 100 nM
  loss of fluorescence intensity: over 80%

## c(KRRFR) [C5] (cyclo(KRRFR); also: D-residues marked by underlining, not recoverable) [cyclic pentapeptide]
TAR RNA; [2]
  Ki: 1870 ± 420 nM
TAR RNA
  binding to TAR RNA (competitor efficiency): most efficient competitors

## cyclo(KRRFR) [C5/1]
TAR RNA; [2]
  Ki: 15300 ± 2500 nM

## cyclo(KRRFR) [C5/2]
TAR RNA; [2]
  Ki: 12700 ± 6580 nM

## cyclo(KRRFR) [C5/3]
TAR RNA; [2]
  Ki: 15200 ± 3790 nM

## cyclo(KRRFR) [C5/4]
TAR RNA; [2]
  Ki: 8280 ± 3010 nM
TAR RNA
  binding to TAR RNA (competitor efficiency): most efficient competitors

## cyclo(KRRFR) [C5/5]
TAR RNA; [2]
  Ki: 17100 ± 13000 nM

## library peptide Dabcyl-Thr-Arg-Lys-X-X-X-X-X-Arg-Lys-Ser-Gly with X5 = KKKKK
RRE RNA
  Kd: 12 nM
GTPase-LHL RNA
  Kd: 26 nM
ss-19mer RNA
  Kd: > 500 nM
TAR bulge RNA
  Kd: 24 nM

## library peptide Dabcyl-Thr-Arg-Lys-X-X-X-X-X-Arg-Lys-Ser-Gly with X5 = KKKQR
RRE RNA
  Kd: 30 nM
GTPase-LHL RNA
  Kd: 76 nM
ss-19mer RNA
  Kd: > 500 nM
TAR bulge RNA
  Kd: 27 nM

## library peptide Dabcyl-Thr-Arg-Lys-X-X-X-X-X-Arg-Lys-Ser-Gly with X5 = KKQKR
RRE RNA; RRE sequence compared with the other RNAs, FIG. 26
  binding of the peptide, measured by quenching of the fluorescenated RNA: highest affinity binding
RRE RNA
  Kd: 15 nM
GTPase-LHL RNA
  Kd: 74 nM
ss-19mer RNA; single stranded RNA, FIG. 26
  binding of the peptide, measured by quenching of the fluorescenated RNA: no significant binding
ss-19mer RNA
  Kd: > 500 nM
TAR bulge RNA
  Kd: 56 nM

## library peptide Dabcyl-Thr-Arg-Lys-X-X-X-X-X-Arg-Lys-Ser-Gly with X5 = KKQRR
RRE RNA
  Kd: 20 nM
GTPase-LHL RNA
  Kd: 55 nM
ss-19mer RNA
  Kd: > 500 nM

## library peptide Dabcyl-Thr-Arg-Lys-X-X-X-X-X-Arg-Lys-Ser-Gly with X5 = KKRQR
RRE RNA
  Kd: 24 nM
GTPase-LHL RNA
  Kd: 43 nM
ss-19mer RNA
  Kd: > 500 nM

## library peptide Dabcyl-Thr-Arg-Lys-X-X-X-X-X-Arg-Lys-Ser-Gly with X5 = KQKKR
TAR bulge RNA
  Kd: 16 nM

## library peptide Dabcyl-Thr-Arg-Lys-X-X-X-X-X-Arg-Lys-Ser-Gly with X5 = KQKRR
TAR bulge RNA
  Kd: 11 nM

## library peptide Dabcyl-Thr-Arg-Lys-X-X-X-X-X-Arg-Lys-Ser-Gly with X5 = KQQQR
TAR bulge RNA
  Kd: > 500 nM

## library peptide Dabcyl-Thr-Arg-Lys-X-X-X-X-X-Arg-Lys-Ser-Gly with X5 = KQRQR
TAR bulge RNA
  Kd: 9 nM

## library peptide Dabcyl-Thr-Arg-Lys-X-X-X-X-X-Arg-Lys-Ser-Gly with X5 = QQQKR
TAR bulge RNA
  Kd: > 500 nM

## library peptide Dabcyl-Thr-Arg-Lys-X-X-X-X-X-Arg-Lys-Ser-Gly with X5 = QQQQQ
GTPase-LHL RNA
  binding to the GTPase RNA: no significant binding
  Kd: > 500 nM
ss-19mer RNA
  Kd: > 500 nM

## library peptide Dabcyl-Thr-Arg-Lys-X-X-X-X-X-Arg-Lys-Ser-Gly with X5 = QQQRR
TAR bulge RNA
  Kd: > 500 nM

## library peptide Dabcyl-Thr-Arg-Lys-X-X-X-X-X-Arg-Lys-Ser-Gly with X5 = RQQQR
TAR bulge RNA
  Kd: > 500 nM

## library peptide Dabcyl-Thr-Arg-Lys-X-X-X-X-X-Arg-Lys-Ser-Gly with X5 = RRRRR
RRE RNA
  Kd: 30 nM
GTPase-LHL RNA
  binding to the GTPase RNA: Efficient binding
  Kd: 16 nM
ss-19mer RNA
  Kd: 194 nM
